This is an account of results in US11976083B2, “Inhibitors of peptidylarginine deiminases” (Gilead Sciences, Inc., priority 2020, dated 2024).

The experiment deals with T1, human PAD4 (Homo sapiens, UniProt Q9UM07).
T1 construct: human PAD4 (NM_012387), A2-P663, was PCR amplified; His-SUMO (N, cleaved yes); made in house; host or cells: E. coli BL21(DE3)
The experiment can be described thus: In vitro PAD4 BAEE biochemical assay. The conditions noted are these: BAEE substrate 3 mM, 5 nM PAD4, 2 mM calcium chloride; geometric mean of multiple experiments. The essentials:
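Fluorescence read-out (ex 405/em 535 nm) of isoindole formed from ammonia, o-phthalaldehyde and DTT after EDTA stop. Reaction: 5 nM PAD4, 2 mM CaCl2, 3 mM BAEE, 2 h, 25 °C, after 30 min enzyme–compound preincubation. Normalised to BB-Cl-Amidine (50 µM) and DMSO controls.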

T1 sequence (Q9UM07 2-663): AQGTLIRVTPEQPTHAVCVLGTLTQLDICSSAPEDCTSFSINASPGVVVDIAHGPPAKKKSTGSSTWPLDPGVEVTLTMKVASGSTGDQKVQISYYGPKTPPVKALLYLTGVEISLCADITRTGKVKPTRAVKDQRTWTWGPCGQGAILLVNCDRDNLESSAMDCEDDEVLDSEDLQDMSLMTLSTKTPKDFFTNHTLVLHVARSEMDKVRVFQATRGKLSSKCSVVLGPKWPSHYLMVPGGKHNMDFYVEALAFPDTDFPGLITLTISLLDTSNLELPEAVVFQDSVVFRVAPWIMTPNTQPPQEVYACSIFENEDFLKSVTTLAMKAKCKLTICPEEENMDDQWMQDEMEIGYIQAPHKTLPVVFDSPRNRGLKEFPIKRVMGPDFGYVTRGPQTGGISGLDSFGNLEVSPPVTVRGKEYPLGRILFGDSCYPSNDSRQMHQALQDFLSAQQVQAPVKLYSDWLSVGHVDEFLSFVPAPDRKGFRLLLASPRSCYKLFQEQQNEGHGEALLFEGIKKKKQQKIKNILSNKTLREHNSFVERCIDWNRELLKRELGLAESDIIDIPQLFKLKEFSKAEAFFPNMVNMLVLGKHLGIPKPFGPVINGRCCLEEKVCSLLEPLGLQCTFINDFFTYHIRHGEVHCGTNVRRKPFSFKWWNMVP

Consider `C[C@H]1NC(=O)[C@@H]2C[C@]2(F)CCCCCn2c(-c3nc4cc(C(=O)N5C[C@H](N)[C@@H]6CC[C@H]5C6)cc(F)c4n3C3CC3)cc3ccc1nc32` [Example 712, (2~{R},5~{S},7~{R})-14-[5-[(1~{S},4~{R},5~ {R})-4-amino-2-azabicyclo [3.2.1]octane-2-carbonyl]-1-cyclopropyl-7-fluoro-benzimidazol-2-yl]-7-fluoro-2-methyl-3,13,19-triazatetracyclo[11.5.2.0^ {5,7}.0^{16,20}] icosa-1(19),14,16(20), 17-tetraen-4-one], for which the IC50 (as a rule, the midpoint of a concentration-inhibition curve) is 0.024 µM.

As to `COc1cc(C(=O)N2CCC[C@@H](N)C2)cc2nc(-c3cc4ccc5nc4n3C[C@@H]3C[C@H]3CC[C@@H]3C[C@H]3C(=O)N[C@@H]5C)n(C)c12` [Example 168, (3~{R},5~{R},8~{R},10~{R},13~{R})-19-[5-[(3~{R})-3-aminopiperidine-1-carbonyl]-7-methoxy-1-methyl-benzimidazol-2-yl]-13-methyl-1,12,21-triazapentacyclo[12.5.2.0^{3,5}.0^{8,10}.0^ {17,20}]henicosa-14(21),15,17(20),18-tetraen-11-one], the IC50 is 0.039 µM. Regarding `C[C@H]1NC(=O)[C@@H]2C[C@H]2CCCCCn2c(-c3nc4cc(C(=O)N[C@H]5CNCC[C@@H]5F)c(F)cc4n3C)cc3ccc1cc32` [Example 564, 6-fluoro-~{N}-[(3~{S},4~ {S})-4-fluoro-3-piperidyl]-1-methyl-2-[(2~{R},5~ {R},7~{R})-2-methyl-4-oxo-3,13-diazatetracyclo [11.5.2.0^{5,7}.0^{16,20}]icosa-1(19),14,16(20), 17-tetraen-14-yl] benzimidazole-5-carboxamide], the half-inhibitory concentration (IC50) turned out to be 0.024 µM. The value for `C[C@H]1NC(=O)C(C)(C)CCCCCCn2c(-c3nc4cc(C(=O)N[C@H]5CNCC[C@@H]5F)c(F)cc4n3CC(F)(F)F)cc3ccc1nc32` [Example 419, 6-fluoro-~{N}-[(3~{S},4~{S})-4-fluoro-3-piperidyl]-1-(2,2,2-trifluoroethyl)-2-[(11~{R})-8,8,11-trimethyl-9-oxo-1,10,19-triazatricyclo[10.5.2.0^{15,18}]nonadeca-12(19),13,15(18),16-tetraen-17-yl]benzimidazole-5-carboxamide] was 0.37 µM. Regarding `COc1cc(C(=O)N2[C@H]3CC[C@@H]2[C@H](N)C3)cc2nc(-c3cc4ccc5cc4n3CCCCCCCC(=O)N3CCC[C@H]53)n(C)c12` [Example 129, (2~{R})-16-[5-[(1~{R},2~{R},4~{S})-2-amino-7-azabicyclo[2.2.1]heptane-7-carbonyl]-7-methoxy-1-methyl-benzimidazol-2-yl]-6,15-diazatetracyclo[13.5.2.0^{2,6}.0^{18,22}] docosa-1(21),16,18(22),19-tetraen-7-one], the IC50 was 0.013 µM.

Take `COc1cc(C(=O)N2C[C@H](N)[C@@H]3CC[C@H]2C3)cc2nc(-c3cc4ccc5nc4n3CCCCCc3ccccc3C(=O)N[C@@H]5C)c(C)n12` [Example 936, (2~{R})-17-[7-[(1~{S},4~{R}, 5~{R})-4-amino-2-azabicyclo [3.2.1]octane-2-carbonyl]-5-methoxy-3-methyl-imidazo [1,2-a]pyridin-2-yl]-2-methyl-3,16,22-triazatetracyclo [14.5.2.0^{5,10).0^{19,23}] tricosa-1(21),5(10),6,8,17,19,22-heptaen-4-one]: the IC50 turned out to be 0.039 µM. The value for `COc1cc(C(=O)N2C[C@H](N)[C@@H]3CC[C@H]2C3)cc2nc(-c3cc4ccc5nc4n3CCCCCc3cc4ccccc4nc3C(=O)N[C@@H]5C)n(C)c12` [Example 461, (2~{R})-21-[5-[(1~{S},4~{R},5~{R})-4-amino-2-azabicyclo[3.2.1]octane-2-carbonyl]-7-methoxy-1-methyl-benzimidazol-2-yl]-2-methyl-3,6,20,26-tetrazapentacyclo[18.5.2.0^ {5,14}.0^{7,12}.0^ {23,27}]heptacosa-1(26),5(14),6,8,10,12,21,23(27),24-nonaen-4-one] was 0.051 µM; that for `COc1cc(C(=O)N[C@@H]2CCCCNC2)cc2nc(-c3cc4ccc5nc4n3CCCCCCC(C)(C)C(=O)N[C@@H]5C)n(C)c12` [Example 78, ~{N}-[(3~{R})-azepan-3-yl]-7-methoxy-1-methyl-2-[(11~{R})-8,8,11-trimethyl-9-oxo-1,10,19-triazatricyclo[10.5.2.0^{15,18}]nonadeca-12(19),13,15(18),16-tetraen-17-yl]benzimidazole-5-carboxamide] was 0.08 µM.

With `COc1cc(C(=O)N[C@H](C)CN)cc2nc(-c3cc4ccc5nc4n3CCCCC[C@@H]3CC3C(=O)N[C@@H]5C)n(C)c12` (some centres unmarked) [Example 509, ~{N}-[(1~{R})-2-amino-1-methyl-ethyl]-7-methoxy-1-methyl-2-[(2~{R},7~{R})-2-methyl-4-oxo-3,13,19-triazatetracyclo[11.5.2.0^ {5,7}.0^{16,20}]icosa-1(19),14,16(20),17-tetraen-14-yl]benzimidazole-5-carboxamide], the half-maximal inhibitory concentration (IC50) was found to be 0.146 µM. As to `C[C@H]1NC(=O)c2ncccc2CCCCCn2c(-c3nc4cc(C(=O)N[C@H]5CNCC[C@@H]5F)c(F)cc4n3C)cc3ccc1nc32` [Example 498, 6-fluoro-~{N}-[(3~{S}, 4~{S})-4-fluoro-3-piperidyl]-1-methyl-2-[(2~{R})-2-methyl-4-oxo-3,6,16,22-tetrazatetracyclo [14.5.2.0^{5,10}.0^ {19,23}]tricosa-1(22), 5,7,9,17,19(23),20-heptaen-17-yl]benzimidazole-5-carboxamide], the IC50 stood at 0.067 µM. For `COc1cc(C(=O)N2[C@H]3CC[C@@H]2[C@H](N)C3)cc2nc(-c3cc4ccc5nc4n3CC(F)(F)CCC[C@@H]3C[C@H]3C(=O)N[C@@H]5C)n(C)c12` [Example 642, (2~{R},5~{R},7~{R})-14-[5-[(1~{R},2~{R},4~ {S})-2-amino-7-azabicyclo[2.2.1]heptane-7-carbonyl]-7-methoxy-1-methyl-benzimidazol-2-yl]-11,11-difluoro-2-methyl-3,13,19-triazatetracyclo [11.5.2.0^{5,7}.0^{16,20}] icosa-1(19),14,16(20), 17-tetraen-4-one] the value was 0.023 µM. The value for `COc1cc(C(=O)N2CCC[C@@H](N)[C@H]2C)cc2nc(-c3cc4ccc5c(F)c4n3CCCCCCC(C)(C)C(=O)N[C@@H]5C)n(C)c12` [Example 645, (11~{R})-17-[5-[(2~{R},3~ {R})-3-amino-2-methyl-piperidine-1-carbonyl]-7-methoxy-1-methyl-benzimidazol-2-yl]-19-fluoro-8,8,11-trimethyl-1,10-diazatricyclo [10.5.2.0^{15,18}]nonadeca-12(19),13,15(18),16-tetraen-9-one] was 0.036 µM. The value for `COc1cc(C(=O)N2[C@H]3CC[C@@H]2[C@H](N)C3)cc2nc(-c3cc4ccc5nc4n3CCCCCCOc3ccccc3C(=O)N[C@@H]5C)c(C)n12` [Example 213, (2~{R})-19-[7-[(1~{R},2~{R},4~{S})-2-amino-7-azabicyclo[2.2.1]heptane-7-carbonyl]-5-methoxy-3-methyl-imidazo[1,2-a]pyridin-2-yl]-2-methyl-11-oxa-3,18,24-triazatetracyclo[16.5.2.0^{5,10}.0^ {21,25}]pentacosa-1(24),5(10),6,8,19,21(25),22-heptaen-4-one] was 0.385 µM. As to `C[C@H]1NC(=O)[C@@H]2C[C@H]2CCCC(F)(F)Cn2c(-c3nc4cc(C(=O)N5C[C@H](N)[C@@H]6CC[C@H]5C6)cc(F)c4n3[C@@H]3C[C@@H]3C(F)F)cc3ccc1nc32` [Example 756, (2~{R},5~{R},7~{R})-14-[5-[(1~{S},4~{R},5~{R})-4-amino-2-azabicyclo[3.2.1]octane-2-carbonyl]-1-[(1~{R},2~{S})-2-(difluoromethyl)cyclopropyl]-7-fluoro-benzimidazol-2-yl]-11,11-difluoro-2-methyl-3,13,19-triazatetracyclo [11.5.2.0^{5,7}.0^{16,20}] icosa-1(19),14,16(20),17-tetraen-4-one], the half-inhibitory concentration (IC50) amounted to 0.031 µM. The value for `COc1cc(C(=O)N2[C@H]3CC[C@@H]2[C@H](N)C3)cc2nc(-c3cc4ccc5nc4n3CCCCCCCC(=O)Nc3ccccc3-5)n(C)c12` [Example 93, 18-[5-[(1~{R},2~{R},4~{S})-2-amino-7-azabicyclo[2.2.1]heptane-7-carbonyl]-7-methoxy-1-methyl-benzimidazol-2-yl]-8,17,23-triazatetracyclo[15.5.2.0^{2,7).0^{20,24}] tetracosa-1(23),2,4,6,18,20(24),21-heptaen-9-one] was 0.161 µM; that for `C[C@H]1NC(=O)CCOC[C@@H]2C[C@@H]2Cn2c(-c3nc4cc(C(=O)N[C@H]5CNCC[C@@H]5F)c(F)cc4n3C3CC3)cc3ccc1nc32` [Example 622, 1-cyclopropyl-6-fluoro-~ {N}-[(3~{S},4~{S})-4-fluoro-3-piperidyl]-2-[(3~{S},5~{R},12~{R})-12-methyl-10-oxo-7-oxa-1,11,20-triazatetracyclo[11.5.2.0^ {3,5}.0^{16,19}]icosa-13(20),14,16(19), 17-tetraen-18-yl] benzimidazole-5-carboxamide] was 0.059 µM; that for `CO[C@@H]1CCN(C(=O)c2cc(OC(F)F)c3c(c2)nc(-c2cc4ccc5nc4n2CCCCC[C@@H]2C[C@H]2C(=O)N[C@@H]5C)n3C)C[C@@H]1N` [Example 511, (2~{R},5~{R}, 7~{R})-14-[5-[(3~{S},4~{R})-3-amino-4-methoxy-piperidine-1-carbonyl]-7-(difluoromethoxy)-1-methyl-benzimidazol-2-yl]-2-methyl-3,13,19-triazatetracyclo[11.5.2.0^ {5,7}.0^{16,20}] icosa-1(19),14,16(20), 17-tetraen-4-one] was 0.095 µM.
